In patent US9573911B2, “Diphosphate mimetics and uses thereof” (President and Fellows of Harvard College, priority 2011, dated 2017):

Key:
Assay in all cases: Kinase profiling, Invitrogen Z'-LYTE
Assay type in all cases: biochemical
Conditions in all cases: Table 2
[1] = target: T1, ABL1 (Homo sapiens, UniProt P00519)
T1 construct: purchased Invitrogen
Experimental: (§1) Kinase profiling was conducted using Invitrogen Z'-LYTE screening protocol and assay conditions found at www.invitrogen.com. Compound (2) inhibited PLK1 completely at 5 μM.

[2] = target: T2, SRPK2 (Homo sapiens, UniProt P78362)
T2 construct: purchased Invitrogen
Experimental: as §1

[3] = target: T3, RET (Homo sapiens, UniProt P07949)
T3 construct: purchased Invitrogen
Experimental: as §1

[4] = target: T4, PRKD1 (PKC mu) (Homo sapiens, UniProt Q15139)
T4 construct: purchased Invitrogen
T4 sequence (Q15139 1-912): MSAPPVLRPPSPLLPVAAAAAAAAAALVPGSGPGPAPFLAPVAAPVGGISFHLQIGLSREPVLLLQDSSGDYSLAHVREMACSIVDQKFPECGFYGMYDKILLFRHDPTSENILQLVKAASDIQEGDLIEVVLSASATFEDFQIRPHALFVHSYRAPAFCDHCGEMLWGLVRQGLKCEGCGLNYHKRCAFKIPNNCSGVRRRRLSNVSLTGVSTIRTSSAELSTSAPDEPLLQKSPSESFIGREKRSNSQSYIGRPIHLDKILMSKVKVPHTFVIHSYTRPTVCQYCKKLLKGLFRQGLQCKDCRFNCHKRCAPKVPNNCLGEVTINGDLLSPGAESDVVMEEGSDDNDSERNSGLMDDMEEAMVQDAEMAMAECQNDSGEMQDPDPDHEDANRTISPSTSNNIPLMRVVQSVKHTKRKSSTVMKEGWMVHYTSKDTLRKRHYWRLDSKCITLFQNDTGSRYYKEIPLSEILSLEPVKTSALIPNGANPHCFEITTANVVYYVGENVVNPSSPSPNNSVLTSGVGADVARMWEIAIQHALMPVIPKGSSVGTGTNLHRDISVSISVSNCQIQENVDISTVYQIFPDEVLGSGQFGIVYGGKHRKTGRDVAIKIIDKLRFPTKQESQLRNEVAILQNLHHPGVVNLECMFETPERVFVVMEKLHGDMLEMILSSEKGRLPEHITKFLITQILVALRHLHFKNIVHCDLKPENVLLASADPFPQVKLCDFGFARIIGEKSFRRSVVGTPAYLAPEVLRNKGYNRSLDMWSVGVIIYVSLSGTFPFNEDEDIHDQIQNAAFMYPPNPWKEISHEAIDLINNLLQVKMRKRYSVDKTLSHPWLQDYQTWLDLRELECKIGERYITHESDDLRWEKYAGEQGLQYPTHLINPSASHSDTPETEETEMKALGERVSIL
Experimental: as §1

[5] = target: T5, MAPK12 (p38 gamma) (Homo sapiens, UniProt P53778)
T5 construct: purchased Invitrogen
T5 sequence (P53778 1-367): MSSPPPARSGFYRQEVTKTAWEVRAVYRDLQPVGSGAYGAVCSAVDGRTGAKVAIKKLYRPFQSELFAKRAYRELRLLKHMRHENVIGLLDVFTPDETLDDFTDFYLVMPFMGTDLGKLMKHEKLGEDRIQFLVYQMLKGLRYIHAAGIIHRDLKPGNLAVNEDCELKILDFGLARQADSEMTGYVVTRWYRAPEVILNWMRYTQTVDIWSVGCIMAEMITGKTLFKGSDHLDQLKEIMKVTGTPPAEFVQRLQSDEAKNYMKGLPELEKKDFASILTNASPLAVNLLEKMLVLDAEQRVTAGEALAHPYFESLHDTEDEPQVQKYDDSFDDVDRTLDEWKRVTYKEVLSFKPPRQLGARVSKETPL
Experimental: as §1

[6] = target: T6, PHKG2 (Homo sapiens, UniProt P15735)
T6 construct: purchased Invitrogen
T6 sequence (P15735 1-406): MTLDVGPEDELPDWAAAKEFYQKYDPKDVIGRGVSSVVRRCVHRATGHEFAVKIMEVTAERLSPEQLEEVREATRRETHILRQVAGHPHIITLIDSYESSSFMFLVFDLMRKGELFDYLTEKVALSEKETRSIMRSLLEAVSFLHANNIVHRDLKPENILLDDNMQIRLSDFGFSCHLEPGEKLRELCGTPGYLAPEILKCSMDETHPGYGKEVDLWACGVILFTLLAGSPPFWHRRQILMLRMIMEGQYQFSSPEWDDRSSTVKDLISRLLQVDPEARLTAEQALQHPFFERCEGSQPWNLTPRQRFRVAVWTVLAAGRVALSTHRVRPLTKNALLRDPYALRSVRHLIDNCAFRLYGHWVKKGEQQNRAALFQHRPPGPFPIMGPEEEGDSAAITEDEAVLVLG
Experimental: as §1

[7] = target: T7, IKBKE (IKK epsilon) (Homo sapiens, UniProt Q14164)
T7 construct: purchased Invitrogen
T7 sequence (Q14164 1-716): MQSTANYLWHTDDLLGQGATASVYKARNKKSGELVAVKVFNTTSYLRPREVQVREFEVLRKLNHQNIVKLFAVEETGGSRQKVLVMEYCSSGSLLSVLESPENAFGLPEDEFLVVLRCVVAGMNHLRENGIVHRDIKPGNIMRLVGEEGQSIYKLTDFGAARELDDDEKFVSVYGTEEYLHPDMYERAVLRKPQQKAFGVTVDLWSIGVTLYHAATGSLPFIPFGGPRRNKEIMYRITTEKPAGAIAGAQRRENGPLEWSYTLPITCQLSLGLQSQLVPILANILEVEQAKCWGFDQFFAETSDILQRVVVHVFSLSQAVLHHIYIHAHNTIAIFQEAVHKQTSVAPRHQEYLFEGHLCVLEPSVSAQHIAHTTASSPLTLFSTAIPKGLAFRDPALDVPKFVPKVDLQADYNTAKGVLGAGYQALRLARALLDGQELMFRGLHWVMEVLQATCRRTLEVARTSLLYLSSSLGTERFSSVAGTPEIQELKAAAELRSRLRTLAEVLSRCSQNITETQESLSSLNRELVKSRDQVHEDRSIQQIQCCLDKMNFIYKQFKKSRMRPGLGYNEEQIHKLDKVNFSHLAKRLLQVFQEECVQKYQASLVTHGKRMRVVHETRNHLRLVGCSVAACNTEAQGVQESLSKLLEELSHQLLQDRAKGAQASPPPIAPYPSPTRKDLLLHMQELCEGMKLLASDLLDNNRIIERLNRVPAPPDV
Experimental: as §1

T1 sequence (P00519 whole entry): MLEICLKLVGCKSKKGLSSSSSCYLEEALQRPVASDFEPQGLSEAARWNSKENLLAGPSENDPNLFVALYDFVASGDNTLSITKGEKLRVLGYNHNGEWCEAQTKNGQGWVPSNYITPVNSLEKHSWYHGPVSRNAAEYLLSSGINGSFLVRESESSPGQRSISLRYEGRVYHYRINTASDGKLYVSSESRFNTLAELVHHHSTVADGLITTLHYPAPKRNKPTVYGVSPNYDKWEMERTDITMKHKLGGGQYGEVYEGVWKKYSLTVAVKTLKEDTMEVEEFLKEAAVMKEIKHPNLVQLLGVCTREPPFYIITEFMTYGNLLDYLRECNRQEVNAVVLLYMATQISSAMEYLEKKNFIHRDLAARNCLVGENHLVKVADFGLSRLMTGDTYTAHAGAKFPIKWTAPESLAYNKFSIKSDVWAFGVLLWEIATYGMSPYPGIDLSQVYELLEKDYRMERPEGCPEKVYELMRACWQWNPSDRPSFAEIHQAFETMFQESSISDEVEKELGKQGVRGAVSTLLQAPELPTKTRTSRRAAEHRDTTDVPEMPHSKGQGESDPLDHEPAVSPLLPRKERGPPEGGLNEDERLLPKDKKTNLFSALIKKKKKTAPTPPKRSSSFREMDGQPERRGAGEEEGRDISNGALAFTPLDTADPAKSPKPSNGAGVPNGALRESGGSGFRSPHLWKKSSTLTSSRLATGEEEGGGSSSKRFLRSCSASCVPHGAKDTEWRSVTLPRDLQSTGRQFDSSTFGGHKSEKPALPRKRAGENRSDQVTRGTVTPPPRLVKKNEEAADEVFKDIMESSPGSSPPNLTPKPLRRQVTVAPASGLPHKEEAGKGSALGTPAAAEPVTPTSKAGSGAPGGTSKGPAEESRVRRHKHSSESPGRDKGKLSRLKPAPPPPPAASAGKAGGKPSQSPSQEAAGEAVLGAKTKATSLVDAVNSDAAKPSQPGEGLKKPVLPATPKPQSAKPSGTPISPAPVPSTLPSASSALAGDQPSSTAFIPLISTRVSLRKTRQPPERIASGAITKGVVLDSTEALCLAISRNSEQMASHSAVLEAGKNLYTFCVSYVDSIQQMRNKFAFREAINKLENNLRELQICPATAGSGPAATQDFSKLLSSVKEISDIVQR
T3 sequence (P07949 29-1114): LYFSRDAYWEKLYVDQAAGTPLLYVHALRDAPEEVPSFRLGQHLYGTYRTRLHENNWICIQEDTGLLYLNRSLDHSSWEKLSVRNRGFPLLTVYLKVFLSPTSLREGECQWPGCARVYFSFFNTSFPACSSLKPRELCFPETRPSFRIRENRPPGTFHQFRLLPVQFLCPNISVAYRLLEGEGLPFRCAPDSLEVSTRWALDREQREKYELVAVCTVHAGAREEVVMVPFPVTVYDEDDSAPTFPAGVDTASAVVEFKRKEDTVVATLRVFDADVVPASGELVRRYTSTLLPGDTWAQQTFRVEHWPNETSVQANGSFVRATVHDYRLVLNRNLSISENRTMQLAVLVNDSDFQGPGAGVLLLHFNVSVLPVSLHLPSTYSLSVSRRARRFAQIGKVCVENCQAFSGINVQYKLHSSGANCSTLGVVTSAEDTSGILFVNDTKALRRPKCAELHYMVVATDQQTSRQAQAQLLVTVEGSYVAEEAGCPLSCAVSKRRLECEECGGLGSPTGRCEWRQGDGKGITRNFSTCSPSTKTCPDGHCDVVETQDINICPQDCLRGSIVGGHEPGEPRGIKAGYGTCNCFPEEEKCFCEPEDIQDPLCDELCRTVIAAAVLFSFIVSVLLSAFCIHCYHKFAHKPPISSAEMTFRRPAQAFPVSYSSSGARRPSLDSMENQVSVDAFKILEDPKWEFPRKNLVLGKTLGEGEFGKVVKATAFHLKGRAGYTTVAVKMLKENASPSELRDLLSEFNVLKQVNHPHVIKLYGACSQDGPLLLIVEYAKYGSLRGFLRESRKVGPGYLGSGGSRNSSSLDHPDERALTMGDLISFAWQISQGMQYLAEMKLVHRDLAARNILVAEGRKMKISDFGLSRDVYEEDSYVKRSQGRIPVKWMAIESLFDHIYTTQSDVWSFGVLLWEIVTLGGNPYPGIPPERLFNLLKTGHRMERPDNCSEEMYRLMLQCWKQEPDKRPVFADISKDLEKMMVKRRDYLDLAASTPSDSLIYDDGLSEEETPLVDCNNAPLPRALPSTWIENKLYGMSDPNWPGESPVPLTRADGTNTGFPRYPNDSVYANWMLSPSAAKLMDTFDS
T2 sequence (P78362 whole entry): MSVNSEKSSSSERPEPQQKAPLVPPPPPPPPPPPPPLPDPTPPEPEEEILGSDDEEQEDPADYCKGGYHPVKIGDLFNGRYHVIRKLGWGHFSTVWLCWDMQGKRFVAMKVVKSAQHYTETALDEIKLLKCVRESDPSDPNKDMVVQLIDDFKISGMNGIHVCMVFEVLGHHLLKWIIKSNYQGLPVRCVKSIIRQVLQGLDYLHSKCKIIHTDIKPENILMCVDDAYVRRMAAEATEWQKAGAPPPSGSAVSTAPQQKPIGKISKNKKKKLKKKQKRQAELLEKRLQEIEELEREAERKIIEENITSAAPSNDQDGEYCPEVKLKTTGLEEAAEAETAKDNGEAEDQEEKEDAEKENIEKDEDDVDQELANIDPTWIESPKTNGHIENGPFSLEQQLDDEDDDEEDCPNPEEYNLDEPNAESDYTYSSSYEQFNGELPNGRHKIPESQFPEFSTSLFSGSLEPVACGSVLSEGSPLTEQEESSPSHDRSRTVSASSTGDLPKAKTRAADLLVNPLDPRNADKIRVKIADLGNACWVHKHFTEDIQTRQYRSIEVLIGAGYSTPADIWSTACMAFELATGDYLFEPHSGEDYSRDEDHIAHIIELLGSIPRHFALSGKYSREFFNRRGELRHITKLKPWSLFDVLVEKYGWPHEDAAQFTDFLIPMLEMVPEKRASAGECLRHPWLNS

With `COc1ccc(OC(=O)n2c(=O)oc3cc(C(C)=O)ccc32)cc1` [Compound 2] the “% Inhibition Point 1” value [1] was −147%, the “% Inhibition Point 2” value [1] was −234% and the “% Inhibition mean” value [1] was −190%. For the same molecule, the “% Inhibition Point 1” value [2] was −155%, the “% Inhibition Point 2” value [2] was −160% and the “% Inhibition mean” value [2] was −158%. The “% Inhibition Point 1” value [3] was −91%, the “% Inhibition Point 2” value [3] was −70% and the “% Inhibition mean” value [3] was −80%. For the same molecule, the “% Inhibition Point 1” value [4] was −137%, the “% Inhibition Point 2” value [4] was −151% and the “% Inhibition mean” value [4] was −144%. For the same molecule, the “% Inhibition Point 1” value [5] was −203%, the “% Inhibition Point 2” value [5] was −203% and the “% Inhibition mean” value [5] was −203%. For the same molecule, the “% Inhibition Point 1” value [6] was −360%, the “% Inhibition Point 2” value [6] was −308% and the “% Inhibition mean” value [6] was −334%. For the same molecule, the “% Inhibition Point 1” value [7] was 3%, the “% Inhibition Point 2” value [7] was 4% and the “% Inhibition mean” value [7] was 3%.
